Results: publication PMC12655252, “Synthesis of 1H-Pyrrolo[3,2-g]isoquinoline Derivatives as Ligands Targeting Haspin Kinase” (Molecules, 2025)

Columns and labels:
Type in all cases: biochemical
HsCLK1 = target: T1, HsCLK1 (Homo sapiens, UniProt P49759); experiment: ADP-Glo in vitro kinase inhibition assay, CLK1; details: 10 μM ATP; for remaining activity at 1 µM: 1 μM compound; for remaining activity at 1 µM / remaining activity at 10 µM: read-out: CLK1 % residual activity; for remaining activity at 10 µM: 10 μM compound
T1 construct: made in house; host or cells: Sf9 insect cells
T1 sequence (P49759 whole entry): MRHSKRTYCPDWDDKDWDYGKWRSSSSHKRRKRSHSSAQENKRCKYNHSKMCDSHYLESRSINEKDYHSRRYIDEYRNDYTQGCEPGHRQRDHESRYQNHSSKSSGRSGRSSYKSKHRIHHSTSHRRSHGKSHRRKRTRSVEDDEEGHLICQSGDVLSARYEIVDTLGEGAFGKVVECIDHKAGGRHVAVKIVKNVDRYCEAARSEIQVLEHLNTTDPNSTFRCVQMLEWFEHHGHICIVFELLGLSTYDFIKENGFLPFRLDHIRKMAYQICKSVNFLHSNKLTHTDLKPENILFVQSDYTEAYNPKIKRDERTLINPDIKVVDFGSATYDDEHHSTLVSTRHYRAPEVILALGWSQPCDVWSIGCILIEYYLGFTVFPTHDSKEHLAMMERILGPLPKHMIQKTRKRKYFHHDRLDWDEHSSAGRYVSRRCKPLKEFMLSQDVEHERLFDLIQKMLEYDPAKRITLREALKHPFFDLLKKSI
Procedure: (§1) We previouly reported that substitution at the 3-position with halogen atoms or pyridinyl or formyl groups was compatible with high potency toward Haspin kinase. To check if the current structural changes were in line with potent Haspin inhibition and high selectivity, enabling consideration of these compounds as possible targeting ligands for the PROTAC approach, compounds 2, 3, 8–11, and 15–17 were evaluated toward a panel of eight protein kinases, including Haspin, as well as other kinases known to be frequently cross-inhibited (CLK1, DYRK1A, CDK9/Cyclin T, GSK-3β, CK1ε, CDK5/p25, and Pim1) (Table 1). The percentage of residual kinase activity was evaluated at 10 μM and 1 μM compound concentrations. […].
(§2) Kinase inhibition was tested in 384-well plates using the ADP-GloTM assay kit (Promega, Madison, WI, USA) according to the procedure recommended by the manufacturer. Reactions were set up in a final volume of 6 μL in an appropriate kinase buffer (10 mM MgCl2, 1 mM EGTA, 1 mM DTT, 25 mM Tris-HCl pH 7.5, 50 μg/mL heparin) with either protein or peptide as the substrate in the presence of 10 μM ATP. To stop the kinase reaction, 6 μL of ADP-GloTM Kinase Reagent was added after 30 min at 30 °C. Then, after 50 min of incubation at room temperature (RT), 12 μL of Kinase Detection Reagent was added. The transmitted signal was measured after 1 h at RT using the Envision (Perkin Elmer, Waltham, MA, USA) microplate luminometer and expressed in relative light units (RLU). In order to determine the half-maximal inhibitory concentration (IC50), all assays were performed in duplicate in the absence or presence of increasing doses of the tested compounds. GraphPad Prism10 software (GraphPad Software, San Diego, CA, USA) was used to fit dose–response curves and to determine the IC50 values. Kinase activities are given as percentages of maximal activity, i.e., measured in the absence of inhibitor. Peptide substrates were obtained from Proteogenix (Schiltigheim, France).
(§3) The following protein kinases were analyzed in this study: CDK5/p25 (human, vector pGEX-2T, expressed in bacteria; kindly provided by Dr. J. H. Wang) was assayed with 0.8 μg/μL of histone H1 as substrate; HsCDK9/CyclinT (NP_001252/KAI4065659, cloned in pTEFb vector, expressed by baculovirus in Sf9 insect cells) were assayed with 0.27 μg/μL of the following peptide: […], as substrate; HsCK1ε (NP_001885, cloned in pFAST-BAC vector, expressed in Sf9 insect cells) was assayed with 0.022 μg/μL of the following peptide: […]pAYSITA (“Sp” stands for phosphorylated serine) as CK1-specific substrate; HsGSK3β (AAH12760, cloned in pFAST-BAC, expressed by baculovirus in Sf9 insect cells) were assayed with 0.010 μg/μL of GS-1 peptide, a GSK-3-selective substrate ([…]pEDEEE); HsHaspin-kd (NP_114171, kinase domain, amino acids 470–798 cloned in pGEX-6P-3, expressed in bacteria) was assayed with 0.007 μg/μL of histone H3 (1–21) peptide ([…]) as substrate; Pim-1 (KAI4018123, expressed in bacteria) was assayed with 0.8 μg/μL of histone H1 as substrate; HsCLK1 (NP_004062, cloned in pFAST-BAC, expressed in Sf9 insect cells) was assayed with 0.027 μg/μL of the peptide: […]; RnDYRK1A-kd (Rattus norvegicus, amino acids 1–499, pGEX-2TK, expressed in bacteria, gift from Dr. W. Becker, Aachen, Germany) was tested in the presence of 0.033 μg/μL of the peptide: […].

RnDYRK1A-kd = target: T2, RnDYRK1A-kd (Rattus norvegicus, UniProt Q63470); experiment: ADP-Glo in vitro kinase inhibition assay, DYRK1A; details: 10 μM ATP; for remaining activity at 1 µM: 1 μM compound; for remaining activity at 1 µM / remaining activity at 10 µM: read-out: DYRK1A % residual activity; for remaining activity at 10 µM: 10 μM compound
T2 construct: Rattus norvegicus, amino acids 1–499, pGEX-2TK; made in house; host or cells: bacteria
Procedure: as §1, §2, §3

HsCDK9/CyclinT = target: T3, HsCDK9/CyclinT (Homo sapiens, UniProt P50750); experiment: ADP-Glo in vitro kinase inhibition assay, CDK9/CyclinT; details: 10 μM ATP, read-out: CDK9 % residual activity; for remaining activity at 1 µM: 1 μM compound; for remaining activity at 10 µM: 10 μM compound
T3 construct: made in house; host or cells: Sf9 insect cells (baculovirus)
T3 sequence (P50750 whole entry): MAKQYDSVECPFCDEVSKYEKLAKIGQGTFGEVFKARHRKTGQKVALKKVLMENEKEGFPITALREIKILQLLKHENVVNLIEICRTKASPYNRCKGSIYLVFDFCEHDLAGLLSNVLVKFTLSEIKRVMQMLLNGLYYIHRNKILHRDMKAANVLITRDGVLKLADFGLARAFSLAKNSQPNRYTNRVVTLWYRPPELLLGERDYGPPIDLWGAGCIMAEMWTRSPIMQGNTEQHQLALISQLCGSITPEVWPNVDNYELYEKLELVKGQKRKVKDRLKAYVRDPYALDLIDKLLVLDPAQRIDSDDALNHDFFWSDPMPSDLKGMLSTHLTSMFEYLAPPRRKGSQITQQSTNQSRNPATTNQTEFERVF
T3 sequence (O60563 whole entry partner): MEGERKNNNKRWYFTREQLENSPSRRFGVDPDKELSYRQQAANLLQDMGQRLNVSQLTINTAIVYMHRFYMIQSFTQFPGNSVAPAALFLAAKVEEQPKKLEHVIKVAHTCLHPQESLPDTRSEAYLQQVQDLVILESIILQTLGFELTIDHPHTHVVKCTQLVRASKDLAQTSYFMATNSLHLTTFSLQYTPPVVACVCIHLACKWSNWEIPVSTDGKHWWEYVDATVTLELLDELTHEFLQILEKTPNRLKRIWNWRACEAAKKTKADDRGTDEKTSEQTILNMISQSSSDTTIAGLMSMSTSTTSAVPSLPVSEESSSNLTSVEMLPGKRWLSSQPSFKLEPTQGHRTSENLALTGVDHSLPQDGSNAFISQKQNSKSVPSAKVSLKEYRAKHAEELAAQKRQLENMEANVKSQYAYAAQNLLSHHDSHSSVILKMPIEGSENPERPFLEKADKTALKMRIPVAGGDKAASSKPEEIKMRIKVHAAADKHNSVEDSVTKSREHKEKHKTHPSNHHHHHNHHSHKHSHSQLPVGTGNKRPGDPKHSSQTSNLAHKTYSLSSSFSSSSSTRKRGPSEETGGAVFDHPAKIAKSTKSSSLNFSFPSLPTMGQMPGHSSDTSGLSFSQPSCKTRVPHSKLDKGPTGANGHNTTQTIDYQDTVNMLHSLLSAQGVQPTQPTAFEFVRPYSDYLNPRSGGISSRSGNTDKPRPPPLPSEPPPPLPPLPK
Procedure: as §1, §2, §3

HsGSK3β = target: T4, HsGSK3β (Homo sapiens, UniProt P49841); experiment: ADP-Glo in vitro kinase inhibition assay, GSK3β; details: 10 μM ATP, read-out: GSK3 % residual activity; for remaining activity at 1 µM: 1 μM compound; for remaining activity at 10 µM: 10 μM compound
T4 construct: made in house; host or cells: Sf9 insect cells (baculovirus)
T4 sequence (P49841 whole entry): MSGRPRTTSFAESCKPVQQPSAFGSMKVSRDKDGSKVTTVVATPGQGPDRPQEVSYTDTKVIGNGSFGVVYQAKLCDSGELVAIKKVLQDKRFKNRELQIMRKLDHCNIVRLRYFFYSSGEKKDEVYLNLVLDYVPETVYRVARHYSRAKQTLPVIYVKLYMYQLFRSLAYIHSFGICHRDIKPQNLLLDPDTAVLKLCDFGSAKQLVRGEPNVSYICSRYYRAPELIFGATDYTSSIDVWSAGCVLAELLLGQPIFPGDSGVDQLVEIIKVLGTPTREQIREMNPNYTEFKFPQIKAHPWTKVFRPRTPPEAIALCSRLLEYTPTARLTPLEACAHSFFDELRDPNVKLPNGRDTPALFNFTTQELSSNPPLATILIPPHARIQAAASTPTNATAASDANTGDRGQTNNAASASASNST
Procedure: as §1, §2, §3

HsCK1ε = target: T5, HsCK1ε (Homo sapiens, UniProt P49674); experiment: ADP-Glo in vitro kinase inhibition assay, CK1ε; details: 10 μM ATP, read-out: CK1 % residual activity; for remaining activity at 1 µM: 1 μM compound; for remaining activity at 10 µM: 10 μM compound
T5 construct: made in house; host or cells: Sf9 insect cells
T5 sequence (P49674 whole entry): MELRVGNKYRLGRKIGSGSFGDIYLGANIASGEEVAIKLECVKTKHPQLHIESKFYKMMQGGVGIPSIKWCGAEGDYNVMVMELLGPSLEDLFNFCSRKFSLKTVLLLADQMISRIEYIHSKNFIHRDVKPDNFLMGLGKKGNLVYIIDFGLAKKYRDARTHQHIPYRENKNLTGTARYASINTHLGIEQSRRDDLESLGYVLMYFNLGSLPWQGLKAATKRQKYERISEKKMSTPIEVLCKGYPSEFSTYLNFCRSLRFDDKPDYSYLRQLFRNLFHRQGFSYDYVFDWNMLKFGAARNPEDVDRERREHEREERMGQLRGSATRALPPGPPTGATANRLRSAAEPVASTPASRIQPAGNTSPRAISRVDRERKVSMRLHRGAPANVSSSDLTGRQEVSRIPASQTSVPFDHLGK
Procedure: as §1, §2, §3

CDK5/p25 = target: T6, CDK5/p25 (Homo sapiens, UniProt Q00535); experiment: ADP-Glo in vitro kinase inhibition assay, CDK5/p25; details: 10 μM ATP, read-out: CDK5 % residual activity; for remaining activity at 1 µM: 1 μM compound; for remaining activity at 10 µM: 10 μM compound
T6 construct: made in house; host or cells: bacteria
T6 sequence (Q00535 whole entry): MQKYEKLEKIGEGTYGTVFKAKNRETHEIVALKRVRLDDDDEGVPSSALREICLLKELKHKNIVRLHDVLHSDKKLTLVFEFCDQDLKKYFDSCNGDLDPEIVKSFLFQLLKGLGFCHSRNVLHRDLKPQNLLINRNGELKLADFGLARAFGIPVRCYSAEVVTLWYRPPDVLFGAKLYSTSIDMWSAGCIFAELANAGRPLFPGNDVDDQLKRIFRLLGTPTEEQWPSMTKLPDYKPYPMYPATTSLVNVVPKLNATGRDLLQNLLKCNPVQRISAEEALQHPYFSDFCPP
T6 sequence (Q15078 99-307 partner limits assumed): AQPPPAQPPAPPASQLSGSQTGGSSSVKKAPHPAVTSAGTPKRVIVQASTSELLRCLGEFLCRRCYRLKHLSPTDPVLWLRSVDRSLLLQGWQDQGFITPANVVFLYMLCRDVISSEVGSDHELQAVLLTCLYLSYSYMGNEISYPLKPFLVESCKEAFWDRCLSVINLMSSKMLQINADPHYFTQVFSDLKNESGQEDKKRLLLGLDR
Procedure: as §1, §2, §3

Pim-1 = target: T7, Pim-1 (Homo sapiens, UniProt P11309); experiment: ADP-Glo in vitro kinase inhibition assay, Pim-1; details: 10 μM ATP; for remaining activity at 1 µM: 1 μM compound; for remaining activity at 1 µM / remaining activity at 10 µM: read-out: PIM1 % residual activity; for remaining activity at 10 µM: 10 μM compound; for IC50: read-out: PIM1 IC50
T7 construct: made in house; host or cells: bacteria
T7 sequence (P11309 whole entry): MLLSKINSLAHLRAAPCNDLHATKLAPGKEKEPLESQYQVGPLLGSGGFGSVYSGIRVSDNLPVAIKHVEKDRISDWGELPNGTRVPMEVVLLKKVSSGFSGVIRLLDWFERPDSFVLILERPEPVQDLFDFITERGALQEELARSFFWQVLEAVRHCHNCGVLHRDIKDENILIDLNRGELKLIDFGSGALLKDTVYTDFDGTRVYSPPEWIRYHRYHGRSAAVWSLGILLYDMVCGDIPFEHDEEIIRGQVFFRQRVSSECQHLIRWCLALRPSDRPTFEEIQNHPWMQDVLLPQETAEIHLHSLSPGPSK
Procedure: as §1, §2, §3

Row | Structure (SMILES) | remaining activity at 1 µM (HsCLK1) | remaining activity at 10 µM (HsCLK1) | remaining activity at 1 µM (RnDYRK1A-kd) | remaining activity at 10 µM (RnDYRK1A-kd) | remaining activity at 1 µM (HsCDK9/CyclinT) | remaining activity at 10 µM (HsCDK9/CyclinT) | remaining activity at 1 µM (HsGSK3β) | remaining activity at 10 µM (HsGSK3β) | remaining activity at 1 µM (HsCK1ε) | remaining activity at 10 µM (HsCK1ε) | remaining activity at 1 µM (CDK5/p25) | remaining activity at 10 µM (CDK5/p25) | remaining activity at 1 µM (Pim-1) | remaining activity at 10 µM (Pim-1) | IC50 (HsCLK1) | IC50 (RnDYRK1A-kd) | IC50 (Pim-1)
1 | c1cc2cc3c(-c4cc[nH]n4)c[nH]c3cc2cn1 [Compound 15, 3-(1H-Pyrazol-3-yl)-1H-pyrrolo[3,2-g]isoquinoline] | 32% | 4% | 39% | 1% | – | – | 100% | 86% | 100% | 48% | 98% | 76% | 44% | 0% | 503 nM | 324 nM | 222 nM
2 | COC(=O)/C=C/c1c[nH]c2cc3cnccc3cc12 [Compound 8, Methyl (E)-3-(1H-Pyrrolo[3,2-g]isoquinolin-3-yl)prop-2-enoate] | 55% | 22% | 43% | 16% | 79% | 51% | 78% | 71% | 90% | 77% | 72% | 100% | 26% | 8% | – | 1130 nM | 404 nM
3 | Nc1ccc(-c2c[nH]c3cc4cnccc4cc23)cn1 [Compound 3, 5-(1H-Pyrrolo[3,2-g]isoquinolin-3-yl)pyridin-2-amine] | 59% | 18% | 15% | 0% | 83% | 44% | 80% | 58% | 78% | 63% | 100% | 100% | 17% | 7% | – | 212 nM | 93.7 nM

Results, then the compound that gave them:

Row | remaining activity at 1 µM (HsCLK1) | remaining activity at 10 µM (HsCLK1) | remaining activity at 1 µM (RnDYRK1A-kd) | remaining activity at 10 µM (RnDYRK1A-kd) | remaining activity at 1 µM (HsCDK9/CyclinT) | remaining activity at 10 µM (HsCDK9/CyclinT) | remaining activity at 1 µM (HsGSK3β) | remaining activity at 10 µM (HsGSK3β) | remaining activity at 1 µM (HsCK1ε) | remaining activity at 10 µM (HsCK1ε) | remaining activity at 1 µM (CDK5/p25) | remaining activity at 10 µM (CDK5/p25) | remaining activity at 1 µM (Pim-1) | remaining activity at 10 µM (Pim-1) | IC50 (HsCLK1) | IC50 (RnDYRK1A-kd) | IC50 (Pim-1) | Structure (SMILES)
4 | 47% | 36% | 69% | 19% | 76% | 39% | 71% | 65% | 92% | 81% | 75% | 81% | 91% | 33% | – | – | – | c1c[nH]c(-c2c[nH]c3cc4cnccc4cc23)c1 [Compound 17, 3-(1H-Pyrrol-2-yl)-1H-pyrrolo[3,2-g]isoquinoline]
5 | 4% | 0% | 11% | 0% | – | – | 94% | 17% | 77% | 12% | 91% | 10% | 20% | 0% | 102 nM | 163 nM | – | c1cc2cc3c(-c4cn[nH]c4)c[nH]c3cc2cn1 [Compound 16, 3-(1H-Pyrazol-4-yl)-1H-pyrrolo[3,2-g]isoquinoline]
